Test results published in PMC4474090 (Journal of pharmaceutical sciences, 2012).

Experiments:
KB epithelial cells = conditions: read-out: toxicity IC50; cited from earlier work
Molt-3 T cells = conditions: read-out: cytotoxicity IC50; LFA-1-expressing Molt-3 T cells; cited from earlier work
[1] = tested on: rat adjuvant arthritis model; type: in vivo
[2] = tested on: rat adjuvant arthritis model; experiment: Suppression of RA in rat adjuvant arthritis model; type: in vivo
[3] = tested on: ICAM-1/LFA-1-mediated heterotypic T-cell adhesion; experiment: Inhibition of ICAM-1/LFA-1-mediated heterotypic T-cell adhesion; type: cell-based; conditions: compared with CH7
[4] = tested on: ICAM-1/LFA-1-mediated heterotypic T-cell adhesion; conditions: compared with cIBR; cited from earlier work
[5] = 0.05 mg/kg i.v. once a day, Day 14

Molecule: CN(Cc1cnc2nc(N)nc(N)c2n1)c1ccc(C(=O)N[C@@H](CCC(=O)O)C(=O)O)cc1 [MTX, Methotrexate]
- IC50 (KB epithelial cells): 27 nM
- IC50 (Molt-3 T cells): 61 nM
- spleen histology: pyogranulomatous inflammation ([1]; 0.05 mg/kg): multi-focal small areas of pyogranulomatous inflammation
- animal body weight ([1]; arthritis animals, 0.05 mg/kg, days 0-14): lost weight after day 8
- Rat Liver Weight ± SE ([1]; arthritis rats, 0.05 mg/kg i.v. once a day, Day 14): 6.1289 ± 0.1451 g
- AUC Paw Ankle Diameter ± SE [2, 5]: 2.388 ± 0.028
- Bone Resorption Score ± SE [2, 5]: 3.1 ± 0.4
- Inflammation Score ± SE [2, 5]: 4.9 ± 0.1
- ankle histology: bone resorption ([2]; 0.05 mg/kg, day 14, H&E): Moderate bone resorption was present across the physis
- ankle histology: synovitis and periarticular inflammation ([2]; 0.05 mg/kg, day 14, H&E): severe synovitis (S) and periarticular inflammation
- Paw Weight ± SE ([2]; arthritis rats, 0.05 mg/kg i.v. once a day day 0-14, Day 14): 3.5790 ± 0.0877 g

Molecule: cyclo(1,6)PRGGKV [CHK7]
- cell adhesion inhibitory activity [3]: lower cell adhesion inhibitory activity than the parent CH7

Molecule: cyclo(1,6)PRGGSV [CH7]
- activity in inhibiting ICAM-1/LFA-1-mediated heterotypic T-cell adhesion [4]: activity comparable to that of cIBR
